Experimental data taken from PubChem BioAssay AID1996.
≈ marks a conversion by molar mass, not a printed value.

Details: buffer; pH 7.4; 200.0 µM

Structure (SMILES)	solubility kinetic [µg/mL]
CCOC(=O)C1CCN(C(=O)C(C)Sc2nnc3ccccn23)CC1 (stereo not given)	> 54.4
O=C(Nc1ccccc1Cl)OC1CCCCC1	< 0.5
COc1ccc(NC(=O)C(=O)NCCCn2ccnc2)cc1	43.1 (≈ 143 µM)
Cc1ccc(NC(=O)CN(C)C(=O)c2ccccn2)cc1	> 42.5
O=C(c1ccc2c(c1)OCO2)N1CCC(Cc2ccccc2)CC1	41.6 (≈ 129 µM)
N#Cc1ccc(C(=O)Nc2nc3ccccc3[nH]2)cc1	2.6 (≈ 9.91 µM)
CCOC(=O)c1nc2c(ccc3ccccc32)cc1C	< 0.6
Cc1ccc(S(=O)(=O)NCc2ccccn2)c(C)c1C	43.2 (≈ 149 µM)
C=CCN(c1ccccc1OC)S(=O)(=O)c1cccc(C(=O)OCC(=O)N2CCOCC2)c1	> 71.2
O=C(COc1ccc(F)cc1F)Nc1cccnc1	36.2 (≈ 137 µM)
Cc1ccc2c(c1)C(c1ccccc1)=NCC(=O)N2C	> 39.6
CN(Cc1ccccc1)C(=O)COc1ccc(C(C)(C)C)cc1	< 0.7
OCCC1CN(CCCc2ccccc2)CCN1Cc1ccccc1 (stereo not given)	> 50.8
Cc1ccc(-c2nc(=O)[nH]c3ccccc23)cc1	25.8 (≈ 109 µM)
Fc1ccccc1OCCCn1ccnc1	> 33
COC(=O)c1ccc(N2C(=O)C3C4C=CC(CC4)C3C2=O)cc1 (stereo not given)	20.1 (≈ 64.6 µM)
O=S(=O)(Nc1ccccc1N1CCOCC1)c1ccccc1C(F)(F)F	7.3 (≈ 18.9 µM)
Cn1ncc(Br)c1NC(=O)c1ccco1	> 40.5
N#C/C(=C\c1cccnc1)C(=O)Nc1ccc(O)cc1F	> 42.5
Cc1cc(C)c(NC(=O)Nc2ccccc2)c(C)n1	34.3 (≈ 134 µM)

Structure (SMILES)	solubility kinetic [µg/mL]
O=C(NCc1ccco1)/C(=C/c1ccccc1)NC(=O)c1ccco1	42.4 (≈ 126 µM)
CC(O)c1cccc(NC(=O)CCCc2ccccc2)c1 (stereo not given)	39 (≈ 138 µM)
Cc1ccc(-c2nc3ncccc3o2)cc1NC(=O)c1ccccc1	0.3 (≈ 0.911 µM)
CC(C)NCC(O)COc1cccc2[nH]ccc12 (stereo not given)	> 37.2
O=C(Nc1nnc(-c2ccncc2)o1)c1ccccc1	> 39.9
CCOC(=O)c1c(O)c2cc(Cl)ccc2n(CC)c1=O	> 44.4
Cc1cc(Cl)ccc1NC(=S)NCC(O)c1ccccc1 (stereo not given)	> 48.1
Cc1cc(C)nc(Nc2ccc(Br)cc2C(=O)O)n1.Cl	> 53.8
O=C(NCc1ccccc1)C12CC3CC(CC(Br)(C3)C1)C2	6.6 (≈ 19 µM)
OC(CN1CCOCC1)Cn1c2ccccc2c2ccccc21 (stereo not given)	> 46.6
O=C(NCCNS(=O)(=O)c1ccccc1)c1ccc([N+](=O)[O-])cc1	51.1 (≈ 146 µM)
COc1ccc(C(=O)N2C[C@H]3C[C@@H](C2)c2cccc(=O)n2C3)cc1OC	> 53.2
COc1ccc([N+](=O)[O-])cc1NC(=O)CCC(=O)c1cccs1	3.8 (≈ 11.4 µM)
COc1cc(OC)c(NC(=O)N2CCOCC2)cc1Cl	> 45.1
COc1ccc(S(=O)(=O)N2CCC(C)CC2)cc1OC	44.8 (≈ 150 µM)
O=C(/C=C\c1ccco1)NC(=S)Nc1ccccc1O	42.6 (≈ 148 µM)
C=CCNc1cc(C)oc(=O)c1C(=O)CC	> 33.2
COCC1CCCN(Cc2nc(Cc3ccccc3)no2)C1 (stereo not given)	44.7 (≈ 148 µM)
O=C(c1sccc1Cl)N1CCN(Cc2ccc3c(c2)OCO3)CC1	> 54.7
O=C1C2C3C=CC(CC3)C2C(=O)N1/N=C/c1ccco1 (stereo not given)	> 40.5

Structure (SMILES)	solubility kinetic [µg/mL]
COc1ccc(-c2noc(CCCC(=O)N3CCOCC3)n2)cc1	49.6 (≈ 150 µM)
COc1cc([N+](=O)[O-])ccc1NC(=O)/C=C/C(=O)O	> 39.9
O=C(CCNC(=O)c1ccccc1Cl)Nc1ccccc1N1CCCC1	48.6 (≈ 131 µM)
Fc1ccc(-c2onc3ccc(C4OCCO4)cc23)cc1	< 0.6
CC(=O)COc1nc2c(c(-c3ccco3)c1C#N)CCc1ccccc1-2	1.7 (≈ 4.94 µM)
C=CCNc1nc(N)c([N+](=O)[O-])c(Nc2cccc(Cl)c2)n1	0.1 (≈ 0.312 µM)
CSCCC(=O)N1CCCC(CO)(CCCc2ccccc2)C1 (stereo not given)	31.7 (≈ 94.5 µM)
O=C(Nc1ccc(N2CCOCC2)cc1)c1cnccn1	> 42.6
O=C(N/N=C/c1ccccc1)C(O)c1ccccc1 (stereo not given)	> 38.1
CCOc1cc(C(=O)NC)cc(Br)c1OC	> 43.2
Cc1csc(Nc2ccc(C(=O)O)cc2)n1	> 35.1
O=C(CSc1ccccc1C(=O)O)NC1CCCCCC1	> 46.1
O=C(NCc1ccccc1)c1ccc(Cl)c(S(=O)(=O)N2CCCC2)c1	33.9 (≈ 89.5 µM)
NC(=O)c1cccnc1Oc1ccc(Cl)cc1	> 37.3
CCc1noc(C)c1C(=O)OCC(=O)Nc1cccc(C)c1	20.4 (≈ 67.5 µM)
CCOc1ccc(N=CNc2ccc(OCC)cc2)cc1	33 (≈ 116 µM)
CCN1CCc2c(OCc3ccc(C)cc3)cccc2C1=O	18.9 (≈ 64 µM)
CCOC(=O)c1c(O)cc(C)cc1Nc1ccccc1	< 0.6
Cc1ccc2nc(-c3ccccc3)c(-c3ccccc3)nc2c1	< 0.3
O=C(Nc1nc2ccccc2[nH]1)c1ccccc1O	0.2 (≈ 0.79 µM)
